# Measurements taken from patent publication US11584734B2, “Tricyclic compounds as histone methyltransferase inhibitors” (GLOBAL BLOOD THERAPEUTICS, INC., priority 2017, dated 2023).
# Target: T1, G9a (Homo sapiens, UniProt Q96KQ7)
# T1 sequence (Q96KQ7 1-1210): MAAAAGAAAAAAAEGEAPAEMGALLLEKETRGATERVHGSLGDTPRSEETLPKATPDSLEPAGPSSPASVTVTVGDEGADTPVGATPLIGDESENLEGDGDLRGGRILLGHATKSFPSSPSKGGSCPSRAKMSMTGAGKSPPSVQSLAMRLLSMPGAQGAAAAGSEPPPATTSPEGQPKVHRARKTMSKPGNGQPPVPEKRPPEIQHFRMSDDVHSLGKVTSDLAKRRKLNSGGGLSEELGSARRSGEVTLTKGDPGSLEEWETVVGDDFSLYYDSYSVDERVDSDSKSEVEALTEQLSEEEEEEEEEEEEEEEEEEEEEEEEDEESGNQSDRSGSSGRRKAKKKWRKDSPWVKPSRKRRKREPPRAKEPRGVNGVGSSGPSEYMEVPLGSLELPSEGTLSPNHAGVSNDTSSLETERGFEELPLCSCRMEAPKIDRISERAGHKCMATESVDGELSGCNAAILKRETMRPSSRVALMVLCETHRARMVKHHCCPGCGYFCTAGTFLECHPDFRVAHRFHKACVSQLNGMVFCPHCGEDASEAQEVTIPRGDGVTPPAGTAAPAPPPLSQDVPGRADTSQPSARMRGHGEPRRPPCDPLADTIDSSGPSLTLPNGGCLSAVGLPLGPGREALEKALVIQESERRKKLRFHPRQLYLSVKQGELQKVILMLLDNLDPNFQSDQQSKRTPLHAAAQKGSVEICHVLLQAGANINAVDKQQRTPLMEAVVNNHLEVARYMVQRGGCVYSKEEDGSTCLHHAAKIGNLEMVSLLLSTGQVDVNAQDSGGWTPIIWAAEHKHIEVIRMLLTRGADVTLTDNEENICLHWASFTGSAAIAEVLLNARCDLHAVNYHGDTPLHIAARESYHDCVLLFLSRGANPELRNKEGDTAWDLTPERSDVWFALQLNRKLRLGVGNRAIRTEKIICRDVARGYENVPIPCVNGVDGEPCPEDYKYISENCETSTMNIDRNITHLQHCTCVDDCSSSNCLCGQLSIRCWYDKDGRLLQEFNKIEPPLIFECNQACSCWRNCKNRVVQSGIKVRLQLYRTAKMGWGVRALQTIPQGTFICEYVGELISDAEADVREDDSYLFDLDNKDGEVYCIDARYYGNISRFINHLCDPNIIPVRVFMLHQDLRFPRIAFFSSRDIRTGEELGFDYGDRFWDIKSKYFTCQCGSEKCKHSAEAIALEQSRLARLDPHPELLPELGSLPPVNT
# Assay: G9a AlphaLISA enzymatic activity assay
# Type: biochemical
# Conditions: negative log of IC50 in molar, 0.15 nM G9a, 15 uM S-adenosyl-methionine, 100 nM biotinylated histone 3 peptide (1-21)
# Source text: The G9a AlphaLISA assay was used to detect the methyl modifications of a biotinylated histone H3 peptide by the compounds. These modifications are done by the histone methyl transferase activity of the G9a enzyme. The assay consists of reading a chemiluminescent signal at 615 nm; this signal is generated by a laser excitation at 680 nm that transfers a reactive singlet oxygen between the donor beads and acceptor beads. Donor beads are streptavidin conjugated and bind to the biotin on the peptide. Acceptor beads are conjugated with an antibody that recognizes the specific G9a methyl mark on the peptide. If there is a methyl mark on the peptide, the acceptor beads will bind to the peptide. Upon binding, the acceptor beads will be in close proximity (<200 nm) of the donor beads and when the donor beads are excited, the transfer of the oxygen can occur and a strong signal will be generated. If there is no methyl mark, the interaction between beads will not occur and signal will be at background levels.
# For the assay, the following buffer was used to set up reactions: 50 mM Tris-HCl pH9, 50 mM NaCl, 0.01% Tween-20 and 1 mM DTT (added fresh prior to starting the reactions). […] The reaction is incubated at rt for 1 hour and subsequently quenched by the addition of the acceptor beads (anti-H3k9me2 AlphaLISA acceptor beads, PerkinElmer #AL117) at a final concentration of 20 ug/mL. The acceptor beads are incubated for 1 hour. After 1 hour, the donor beads are added at a final concentration of 20 ug/mL (Alpha Streptavidin donor beads, PerkinElmer #6760002). Donor beads are incubated for 0.5 hours. Both donor and acceptor beads are resuspended in AlphaLISA 5X Epigenetics Buffer 1 Kit (PerkinElmer #AL008) prior to addition to the reaction. All manipulations and incubations with the donor and acceptor beads are done in subdued light. Signal is detected in an EnVision plate reader in Alpha mode. See ACS Med Chem Lett. 2014; 5(2):205-9.
# Percent inhibition was calculated for each compound dilution and the concentration that produced 50% inhibition was calculated. This value is presented as the pIC50, which is the negative log of the IC50 value in molar.
row,SMILES,IC50
1,"CNc1c2c(nc3cc(OCCCN)c(OC)cc13)CCC2 [Example 61, 6-(3-aminopropoxy)-7-methoxy-N-methyl-1H,2H,3H-cyclopenta[b]quinolin-9-amine]",0.537 µM
2,"CNc1c2c(nc3cc(OCCCNS(C)(=O)=O)c(OC)cc13)CCC2 [Example 62, N-(3-{[7-methoxy-9-(methylamino)-1H,2H,3H-cyclopenta[b]quinolin-6-yl]oxy}propyl)methanesulfonamide]",0.933 µM
3,"COc1cc2c(NCC3CC3)c3c(nc2cc1OCCOCCN(C)C)CCC3 [Example 63, N-(cyclopropylmethyl)-6-{2-[2-(dimethylamino)ethoxy]ethoxy}-7-methoxy-1H,2H,3H-cyclopenta[b]quinolin-9-amine]",0.0182 µM
4,"CNc1c2c(nc3cc(OCCC(C)N4CCCC4)c(OC)cc13)CCC2 (stereo not shown) [Example 64, 7-methoxy-N-methyl-6-[3-(pyrrolidin-1-yl)butoxy]-1H,2H,3H-cyclopenta[b]quinolin-9-amine]",0.126 µM
5,"CNc1c2c(nc3cc(OC(C)CCN4CCCC4)c(OC)cc13)CCC2 (stereo not shown) [Example 65, 7-methoxy-N-methyl-6-{[4-(pyrrolidin-1-yl)butan-2-yl]oxy}-1H,2H,3H-cyclopenta[b]quinolin-9-amine]",0.0724 µM
6,"CCN(CC)CCOCCOc1cc2nc3c(c(NC(C)C)c2cc1OC)CCC3 [Example 66, 6-{2-[2-(diethylamino)ethoxy]ethoxy}-7-methoxy-N-(propan-2-yl)-1H,2H,3H-cyclopenta[b]quinolin-9-amine]",0.437 µM
7,"COc1cc2c(NCC3CNC3)c3c(nc2cc1OCCCN1CCCC1)CCC3 [Example 67, N-[(azetidin-3-yl)methyl]-7-methoxy-6-[3-(pyrrolidin-1-yl)propoxy]-1H,2H,3H-cyclopenta[b]quinolin-9-amine]",0.00135 µM
8,"COc1cc2c(NCC3CC3)c3c(nc2cc1OCC1(CN2CCCC2)COC1)CCC3 [Example 68, N-(cyclopropylmethyl)-7-methoxy-6-({3-[(pyrrolidin-1-yl)methyl]oxetan-3-yl}methoxy)-1H,2H,3H-cyclopenta[b]quinolin-9-amine]",1.55 µM
9,"CNc1c2c(nc3cc(OCCCN4C5CCCC4CC5)c(OC)cc13)CCC2 [Example 69, 6-(3-{8-azabicyclo[3.2.1]octan-8-yl}propoxy)-7-methoxy-N-methyl-1H,2H,3H-cyclopenta[b]quinolin-9-amine]",2.69 µM
10,"COc1cc2c(NC3CCN(C(C)C)CC3)c3c(nc2cc1OCCCN(C)C)CCC3 [Example 70, N-{6-[3-(dimethylamino)propoxy]-7-methoxy-1H,2H,3H-cyclopenta[b]quinolin-9-yl}-1-(propan-2-yl)piperidin-4-amine]",0.0049 µM
11,"CNc1c2c(nc3cc(OCCCN(C)C)c(OC)cc13)CCC2 [Example 71, 6-[3-(dimethylamino)propoxy]-7-methoxy-N-methyl-1H,2H,3H-cyclopenta[b]quinolin-9-amine]",0.0407 µM
12,"COc1cc2c(NCC3CC3)c3c(nc2cc1OCCCNS(N)(=O)=O)CCC3 [Example 72, N-[3-({9-[(cyclopropylmethyl)amino]-7-methoxy-1H,2H,3H-cyclopenta[b]quinolin-6-yl}oxy)propyl]aminosulfonamide]",1.95 µM
13,"COc1cc2c(NC3CCCNC3)c3c(nc2cc1OCCCN(C)C)CCC3 (stereo not shown) [Example 73, N-{6-[3-(dimethylamino)propoxy]-7-methoxy-1H,2H,3H-cyclopenta[b]quinolin-9-yl}piperidin-3-amine]",0.00145 µM
14,"COc1cc2c(NCC3CNC3)c3c(nc2cc1OCCCN1CC2CC(C2)C1)CCC3 [Example 74, 6-(3-{3-azabicyclo[3.1.1]heptan-3-yl}propoxy)-N-[(azetidin-3-yl)methyl]-7-methoxy-1H,2H,3H-cyclopenta[b]quinolin-9-amine]",0.00832 µM
15,"CCNc1c2c(nc3cc(OCCCN4CC[C@@H](OC)C4)c(OC)cc13)CCC2 [Example 75, N-ethyl-7-methoxy-6-{3-[(3R)-3-methoxypyrrolidin-1-yl]propoxy}-1H,2H,3H-cyclopenta[b]quinolin-9-amine]",0.0525 µM
16,"COc1cc2c(NC3CCN(C(C)C)CC3)c3c(nc2cc1OCCCN1CC[C@@H](OC)C1)CCC3 [Example 76, N-(7-methoxy-6-{3-[(3R)-3-methoxypyrrolidin-1-yl]propoxy}-1H,2H,3H-cyclopenta[b]quinolin-9-yl)-1-(propan-2-yl)piperidin-4-amine]",0.00646 µM
